The source of these data is the Deep4Chem optical property database.

One series can be described thus: solvent given as SMILES. Conditions: in CS(C)=O.
The compound `CCCCCCn1c2ccccc2c2cc(/C=C/c3cc(=O)oc4cc(C)ccc34)ccc21` registered an emission maximum of 542 nm.
In turn, `C(=C\c1cnc2ccccc2n1)/c1ccc(N2CCCCC2)cc1` yielded an emission maximum of 626 nm.

Staying with this series, now noted: in Cc1ccccc1.
The compound `Cc1cc(C)c(B(c2c(C)cc(C)cc2C)c2c(C)cc(N3c4ccccc4Oc4ccccc43)cc2C)c(C)c1` came in with an emission maximum of 509 nm.
Same read-out and setting: the value for `CC1(C)c2ccccc2N(c2ccccc2)c2ccc(-c3nc(-c4ccccc4)nc(-c4ccccc4)n3)cc21` was 430.68 nm; that for `CSc1cc(-c2cc3cc4c5c(c3oc2=O)CCCN5CCC4)oc(=O)c1C#N` was 553 nm.
Same read-out and setting: the value for `O=S(=O)(c1ccccc1)c1ccc(-c2ccc3c(c2)c2cc(-c4ccc(S(=O)(=O)c5ccccc5)cc4)ccc2n3-c2ccccc2)cc1` was 381 nm; that for `COc1ccc(N(c2ccc(OC)cc2)c2ccc3ccc4c(B(c5c(C)cc(C)cc5C)c5c(C)cc(C)cc5C)ccc5ccc2c3c54)cc1` was 575 nm.
Regarding `c1ccc(N(c2ccccc2)c2ccc3c4cccc5c(N(c6ccccc6)c6ccccc6)ccc(c6cccc2c63)c54)cc1`, the emission maximum was found to be 541 nm.
Same read-out and setting: the value for `CC(C)c1cccc(C(C)C)c1N1C(=O)c2cc(Cl)c3c4c(Cl)cc5c6c(cc(Cl)c(c7c(Cl)cc(c2c37)C1=O)c64)C(=O)N(c1c(C(C)C)cccc1C(C)C)C5=O` was 552 nm; that for `CC1(C)c2cc(C#N)ccc2-c2ccc(N3c4ccccc4Oc4ccccc43)cc21` was 487 nm.
On the same count and under the same terms, the value for `COc1ccc2c3ccc(OC)cc3n(-c3ccc(-c4nnc(-c5c(C(C)C)cc(C(C)C)cc5C(C)C)o4)cc3)c2c1` was 437 nm.

Still in this series, the particulars now being: in ClC(Cl)Cl.
The compound `c1ccc2c(-c3ccc(-n4c5ccccc5c5ccccc54)cc3)c3c(nc2c1)-c1cc2c(cc1CC3)-c1nc3ccccc3c(-c3ccc(-n4c5ccccc5c5ccccc54)cc3)c1CC2` showed an emission maximum of 385 nm.
`CSc1cc(-c2cc3cc4c5c(c3oc2=O)CCCN5CCC4)oc(=O)c1C#N`: the emission maximum stood at 570 nm.
Same read-out and setting: the value for `Cc1ccc(N(c2ccc(C)cc2)c2ccc(-c3ccc(C=C(C#N)C#N)cc3)cc2)cc1` was 676 nm; that for `COc1ccc(N(c2ccc(OC)cc2)c2ccc3ccc4c(B(c5c(C)cc(C)cc5C)c5c(C)cc(C)cc5C)ccc5ccc2c3c54)cc1` was 601 nm; that for `c1ccc2c(c1)ccc1ccc3ccc4ccccc4c3c12` was 424 nm.
On to `CC(C)c1cccc(C(C)C)c1-n1c(=O)c2cc3nc(-c4ccccc4)c4cc5c(=O)n(-c6c(C(C)C)cccc6C(C)C)c(=O)c6cc7c(-c8ccccc8)nc8cc(c1=O)c2c1c3c4c(c56)c7c81`, for which the emission maximum amounted to 488 nm.
Compound `F[B-]1(F)n2c(cc3sc4ccccc4c32)C(c2ccc(I)cc2)=C2C=c3sc4ccccc4c3=[N+]21` showed an emission maximum of 673 nm.
On the same count and under the same terms, the value for `CC1(C)c2cc(C#N)ccc2-c2ccc(N3c4ccccc4Oc4ccccc43)cc21` was 530 nm; that for `CCCCCCn1c2ccccc2c2cc(/C=C/c3cc(=O)oc4cc(C)ccc34)ccc21` was 504 nm.
Still for that read-out and setting: the value for `CC(C)n1c(=O)c2cc3ccc4cccc5ccc(c2c1=O)c3c45` was 457 nm.

The same series, now with this note: in ClCCl.
Compound `CSc1cc(-c2cc3cc4c5c(c3oc2=O)CCCN5CCC4)oc(=O)c1C#N` displayed an emission maximum of 586 nm.
On the same count and under the same terms, the value for `N#CC(C#N)=Cc1ccc(-c2ccc(-c3nc4ccccc4s3)c(O)c2)o1` was 502 nm; that for `COc1ccc(-c2cn3ccc[n+]3[n-]2)cc1` was 413 nm; that for `O=S(=O)(c1ccccc1)c1ccc(-c2ccc3c(c2)c2cc(-c4ccc(S(=O)(=O)c5ccccc5)cc4)ccc2n3-c2ccccc2)cc1` was 395 nm.
Same read-out and setting: the value for `COc1ccc(N(c2ccc(OC)cc2)c2ccc3ccc4c(B(c5c(C)cc(C)cc5C)c5c(C)cc(C)cc5C)ccc5ccc2c3c54)cc1` was 633 nm.
On the same count and under the same terms, the value for `O=C1c2ccccc2-c2c(-c3cc(Br)ccc3O)[nH]c(=O)n21` was 474 nm; that for `CCCc1ccc(C#Cc2cc(C#Cc3ccc(CCC)cc3)c3ccc4c(C#Cc5ccc(CCC)cc5)cc(C#Cc5ccc(CCC)cc5)c5ccc2c3c54)cc1` was 494 nm.
Turning to `c1ccc(N(c2ccccc2)c2ccc3c4cccc5c(N(c6ccccc6)c6ccccc6)ccc(c6cccc2c63)c54)cc1`, the emission maximum worked out at 547 nm.
`COC(=O)C1=C(C(=O)OC)C2(c3ccccc3-c3ccccc32)[C@@H](c2ccc(C)cc2)C=C2c3cc(OC)c(OC)cc3CCN21` gave an emission maximum of 425 nm.
`N#Cc1cc(/C=C/c2ccc(N(c3ccccc3)c3ccccc3)cc2)ccc1/C=C/c1ccc(/C=C/c2ccc(N(c3ccccc3)c3ccccc3)cc2)cc1C#N` had an emission maximum of 614 nm.
Still for that read-out and setting: the value for `CN(C)c1ccc(/C=C/c2cnc(-c3ccncc3)o2)cc1` was 550 nm; that for `CC1(C)c2ccccc2-c2cc3c(cc21)c1ccccc1n3-c1ccncc1` was 370 nm.
Same read-out and setting: the value for `CC(C)(C)NC(=O)c1ccc(Br)c2ccc3c4ccccc4c4ccccc4c3c12` was 388 nm; that for `CCOC(=O)c1ccc(C2=Cc3ccccc3P2(=O)c2ccccc2)cc1` (configuration not stated) was 425 nm.
Regarding `CCCCCCCCCCCCCCCCCCOc1ccc([B-]23NC(c4ccccc4)=Nc4cccc([n+]42)N=C(c2ccccc2)N3)cc1`, the emission maximum is 511 nm.
On the same count and under the same terms, the value for `CN(C)c1ccc(C2=C3C=C(c4ccc(C#N)cc4)S[C@]34c3ccccc3[C@H]2c2ccccc24)cc1` was 601 nm; that for `CC1(C)c2ccccc2-c2cc3c(cc21)c1ccccc1n3-c1ccc2ccccc2n1` was 438 nm.
Same read-out and setting: the value for `C(=C\c1cnc2ccccc2n1)/c1ccc(N2CCCCC2)cc1` was 583 nm.
The same measure, in the same setting: the value for `CCCCN(CCCC)c1ccc(C#Cc2cc(C#Cc3cc(C(F)(F)F)cc(C(F)(F)F)c3)c(C#Cc3cc(C(F)(F)F)cc(C(F)(F)F)c3)cc2C#Cc2ccc(N(CCCC)CCCC)cc2)cc1` was 556 nm; that for `N#Cc1cc(-c2ccc(/C=C/c3ccc(N(c4ccccc4)c4ccccc4)cc3)c(C#N)c2)ccc1/C=C/c1ccc(N(c2ccccc2)c2ccccc2)cc1` was 541 nm.
`Nc1cccc2c1ccc1[n+]2[B-](F)(F)n2c-1cc1c3ccccc3c3ccccc3c12` yielded an emission maximum of 580 nm.

The series is the same for the next values; noted with them: in O.
Turning to `CN1/C(=C/C=C(/C=C/C2=[N+](C)c3ccccc3C2(C)C)c2ccc(F)cc2)C(C)(C)c2ccccc21`, the emission maximum is given as 662 nm.
The same measure, in the same setting: the value for `N#CC(C#N)=Cc1ccc(-c2ccc(-c3nc4ccccc4s3)c(O)c2)o1` was 596 nm; that for `CN1/C(=C/C=C(/C=C/c2sc3ccccc3[n+]2C)c2ccccc2)Sc2ccccc21` was 673 nm.
Still for that read-out and setting: the value for `CC/[NH+]=c1\cc2oc3cc(NCCO)c4ccccc4c3nc-2cc1C` was 651 nm; that for `CC1(C)C(/C=C/C=C/C=C/C=C2/N(CCCCCC(=O)O)c3ccc(S(=O)(=O)[O-])cc3C2(C)C)=[N+](CCCCS(=O)(=O)[O-])c2ccc(S(=O)(=O)[O-])cc21` was 771 nm.

The series is the same for the next values; noted with them: in O=P(c1ccccc1)(c1ccccc1)c1ccccc1Oc1ccccc1P(=O)(c1ccccc1)c1ccccc1.
As to `CC1(C)c2ccccc2N(c2ccccc2)c2ccc(-c3nc(-c4ccccc4)nc(-c4ccccc4)n3)cc21`, the emission maximum was found to be 452 nm.

Still in this series, the particulars now being: in OCC(F)(F)F.
`CC(C)(C)NC1=C2C=CC=[N+]2[B-](F)(F)n2cccc21` yielded an emission maximum of 497.5 nm.

Still in this series, the particulars now being: in c1cc(-c2cccc(-n3c4ccccc4c4ccccc43)c2)cc(-n2c3ccccc3c3ccccc32)c1.
The compound `Cc1cc(-c2nc(-c3ccccc3)nc(-c3ccccc3)n2)c(C)cc1-c1ccc2c(c1)C1(c3ccccc3-c3ccccc31)c1ccccc1N2c1ccccc1` returned an emission maximum of 446 nm.

Staying with this series, now noted: in c1ccc2c(c1)c1ccccc1n2-c1ccc(-c2ccc(-n3c4ccccc4c4ccccc43)cc2)cc1.
Compound `Cc1cc(C)c(B(c2c(C)cc(C)cc2C)c2c(C)cc(N3c4ccccc4Oc4ccccc43)cc2C)c(C)c1` displayed an emission maximum of 504 nm.

The series is the same for the next values; noted with them: in c1ccccc1.
Turning to `CCCCN(CCCC)c1ccc(C#Cc2cc(C#Cc3cc(C(F)(F)F)cc(C(F)(F)F)c3)c(C#Cc3cc(C(F)(F)F)cc(C(F)(F)F)c3)cc2C#Cc2ccc(N(CCCC)CCCC)cc2)cc1`, the emission maximum is given as 506 nm.
